Laboratory results taken from the supplement of paper PMC12317010.
Where a name gives a salt, the structure may show the parent alone.

Assay: collision cross section in nitrogen (drift tube, single-field); higher = larger gas-phase ion size
[1] = ion type: [M+H], ion source: ESI, ion mode: Positive
[2] = ion type: [M-H], ion source: ESI, ion mode: Negative
[3] = ion type: [M+H], ion source: APCI, ion mode: Positive
[4] = ion type: [M+Na], ion source: ESI, ion mode: Positive
[5] = ion type: [M+], ion source: APCI, ion mode: Positive
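Also: chemical standards at 10 µM analysed by drift tube IMS-QTOF MS in about 3.95 torr nitrogen, mean of duplicate injections differing ≤1%, mass error below 10 ppm.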

| Structure (SMILES) | collision cross section in nitrogen [1] | collision cross section in nitrogen [2] | collision cross section in nitrogen [3] | collision cross section in nitrogen [4] | further results |
| --- | --- | --- | --- | --- | --- |
| O=S(=O)(O)c1ccc(O)c2ncccc12 [8-Hydroxyquinoline-5-sulfonic acid hydrate (1:x)] | 146.7 Å² | 142.4 Å² |  |  |  |
| Cc1nc(-c2ccc3c(c2)CCN(CCC2CCC(NC(=O)/C=C/c4ccc(F)cc4)CC2)CC3)no1 (stereo not given) | 224.8 Å² | 226.8 Å² | 225.5 Å² | 236.2 Å² |  |
| Cc1cc(=O)[nH]c(=S)[nH]1 [6-Methyl-2-thiouracil] |  | 123.1 Å² |  |  |  |
| c1ccc2cc3c(cc2c1)-c1cccc2cccc-3c12 [Benzo[k]fluoranthene] |  |  |  |  | collision cross section in nitrogen [5]: 151.3 Å² |
| CC(=O)NCc1ccccc1 [N-Benzylacetamide] |  | 135.1 Å² |  |  |  |
| CNC(=O)Oc1c(C(C)(C)C)cc(C)cc1C(C)(C)C [Terbucarb] |  |  |  | 176.8 Å² |  |
| CCOC(=O)c1cccc(O)c1 [Ethyl 3-hydroxybenzoate] |  | 137.7 Å² |  |  |  |
| N#Cc1ccc(O)cc1 [4-Hydroxybenzonitrile] |  | 118.1 Å² |  |  |  |
| CC(NC(C)(C)C)C(=O)c1cccc(Cl)c1 (stereo not given) [Bupropion hydrochloride] | 158.6 Å² |  |  |  |  |
| CO/C=C(/C(=O)OC)c1ccccc1COc1cccc(C(F)(F)F)n1 [Picoxystrobin] |  |  |  | 179.3 Å² |  |
| Nc1c2c(nc3ccccc13)CCCC2 [Tacrine] | 142.7 Å² | 145.4 Å² |  |  |  |
| N=C(N)NC(=N)NCCc1ccccc1 | 146.3 Å² |  | 145.7 Å² | 148.3 Å² |  |
| Cn1c([N+](=O)[O-])cnc1COC(N)=O [Ronidazole] |  |  |  | 143.1 Å² |  |
| O=C(c1ccc(O)cc1)c1ccc(O)cc1O [2,4,4'-Trihydroxybenzophenone] |  | 152.8 Å² |  |  |  |
| Oc1ccc(Nc2ccccc2)cc1 [4-Anilinophenol] |  | 147.4 Å² |  |  | collision cross section in nitrogen [5]: 140.4 Å² |
| C=CC(=O)NCNC(=O)C=C [N,N'-Methylenebisacrylamide] |  |  |  | 138.1 Å² |  |
| CCc1cccc(O)c1 [3-Ethylphenol] |  | 127.5 Å² |  |  |  |
| CCCSP(=O)(OCC)Oc1ccc(Br)cc1Cl (stereo not given) [Profenofos] | 169.5 Å² |  |  | 184.3 Å² |  |
| O=c1n(CCO)c(=O)n(CCO)c(=O)n1CCO [Tris(2-hydroxyethyl) isocyanurate] |  |  |  | 159.3 Å² |  |
| CNCc1cc(F)ccc1Oc1ccc(Cl)c(Cl)c1 | 173.4 Å² |  |  |  |  |
| CS(=O)(=O)c1ccc(C(=O)C2C(=O)CCCC2=O)c(Cl)c1COCC(F)(F)F [Tembotrione] | 189.3 Å² | 188.5 Å² |  | 185.1 Å² |  |

| Structure (SMILES) | collision cross section in nitrogen [1] | collision cross section in nitrogen [2] | collision cross section in nitrogen [3] | collision cross section in nitrogen [4] | further results |
| --- | --- | --- | --- | --- | --- |
| CSC(C)=NOC(=O)N(C)SN(C)C(=O)ON=C(C)SC [Thiodicarb] |  |  |  | 190.7 Å² |  |
| O=[N+]([O-])c1c2ccccc2cc2ccccc12 [9-Nitroanthracene] |  | 145.1 Å² | 145.5 Å² |  |  |
| O=C(O)CCCCCCCCC(=O)O [Decanedioic acid] |  | 144.6 Å² |  |  |  |
| Cc1ccccc1NC(=N)NC(=N)N [1-(o-Tolyl)biguanide] | 144.7 Å² |  | 144.7 Å² | 148.5 Å² |  |
| CCOc1ccc(N)cc1 [4-Ethoxyaniline] | 139.8 Å² |  |  |  |  |
| C=CC(=O)NC(C)(C)CC(C)=O [Diacetone acrylamide] |  |  |  | 145.2 Å² |  |
| CCCCN(CCO)CCO [N-Butyldiethanolamine] | 136.7 Å² |  | 136.3 Å² |  |  |
| CCCCCCCCCCCCc1ccccc1O [n-Dodecylphenol] |  | 173.8 Å² |  |  |  |
| O=S(=O)(O)NC1CCCCC1 [Cyclamic acid] |  | 139.6 Å² |  |  |  |
| Oc1ccccc1O [1,2-Benzenediol] |  | 116.1 Å² |  |  |  |
| CCCCCCCCc1ccc(Nc2ccc(CCCCCCCC)cc2)cc1 [4,4'-Dioctyldiphenylamine] | 219.9 Å² | 221 Å² | 218.8 Å² |  | collision cross section in nitrogen [5]: 219.4 Å² |
| CN(c1nccc(=O)[nH]1)C1CCN(c2nc3ccccc3n2Cc2ccc(F)cc2)CC1 [Mizolastine] | 203.7 Å² | 204.5 Å² | 204.1 Å² | 209.6 Å² |  |
| c1ccc2[nH]ccc2c1 [Indole] |  | 119.5 Å² |  |  |  |
| CCN1C(=O)c2ccccc2C1=O [N-Ethylphthalimide] | 135.4 Å² |  | 133.7 Å² |  |  |
| CCCCN(CC)c1c([N+](=O)[O-])cc(C(F)(F)F)cc1[N+](=O)[O-] [Benfluralin] |  | 168.5 Å² |  |  |  |
| NCCCN1CCOCC1 [4-Morpholinepropanamine] | 128.2 Å² |  | 128.3 Å² |  |  |
| Nc1cc2c3c(c1)C(c1ccccc1)=N[C@@H](NC(=O)c1cccnc1)C(=O)N3CC2 | 200.1 Å² |  | 201.2 Å² | 209.2 Å² |  |
| O=C(NC(=O)c1c(F)cccc1F)Nc1ccc(Cl)cc1 [Diflubenzuron] |  | 169.5 Å² |  | 177.4 Å² |  |
| O=C1OC(c2ccc(O)cc2)(c2ccc(O)cc2)c2ccccc21 [Phenolphthalein] | 173.9 Å² | 176.2 Å² | 173.8 Å² | 191.8 Å² |  |
| CC1=CC(=O)NS(=O)(=O)O1 [Acesulfame potassium] |  | 125.1 Å² |  |  |  |
| O=C(O)C(F)(F)C(F)(F)C(F)(F)C(F)(F)C(F)(F)C(F)(F)C(F)(F)C(F)(F)F [Perfluorononanoic acid] |  | 166.1 Å² |  |  |  |

| Structure (SMILES) | collision cross section in nitrogen [1] | collision cross section in nitrogen [2] | collision cross section in nitrogen [3] | collision cross section in nitrogen [4] | further results |
| --- | --- | --- | --- | --- | --- |
| CC(C)(C)c1cccc(O)c1 [3-tert-Butylphenol] |  | 136.9 Å² |  |  |  |
| CC(C)CCCCCCCOC(=O)c1ccccc1C(=O)OCCCCCCCC(C)C [Diisodecyl phthalate] |  |  |  | 226.5 Å² |  |
| O=C(O)[C@H](O)[C@@H](O)[C@H](O)[C@H](O)CO [D-Gluconic acid] |  | 133.2 Å² |  |  |  |
| CCOC(=O)c1ccc(O)cc1 [Ethylparaben] |  | 136.7 Å² |  |  |  |
| NC(=O)c1ccc(N)nc1 [6-aminopyridine-3-carboxamide] | 131.3 Å² | 124.5 Å² | 130.2 Å² |  |  |
| O=c1cc(-c2ccccc2)oc2ccccc12 [Flavone] | 146.5 Å² |  | 146.6 Å² |  |  |
| Cc1ccccc1S(=O)(=O)O [2-Methylbenzenesulfonic acid] |  | 131.9 Å² |  |  |  |
| Cc1ccc(C(C)NC(=O)[C@@H](NC(=O)OC(C)C)C(C)C)cc1 (stereo not given in full) [Iprovalicarb] |  |  | 184.2 Å² | 183.5 Å² |  |
| CCCCCC[C@@H](O)C/C=C\CCCCCCCC(=O)OCC(O)CO (stereo not given in full) [Glyceryl monoricinoleate] |  |  |  | 201.9 Å² |  |
| CCCOC(=O)c1c(Cl)c(Cl)c(Cl)c(Cl)c1C(=O)OCCC [Dipropyl 3,4,5,6-tetrachlorobenzene-1,2-dicarboxylate] |  |  |  | 191.8 Å² |  |
| CCNc1nc(NCC)nc(SC)n1 [Simetryn] | 149.5 Å² |  | 149.6 Å² |  |  |
| O=C(Nc1ccc2ccccc2c1)c1ccc(Cl)cc1Cl [2,4-Dichloro-N-(naphthalene-2-yl)benzamide] | 171.9 Å² |  |  | 184.5 Å² |  |
| Cc1cccc(Nc2ccccc2)c1 [3-Methyl-N-phenylaniline] | 143.6 Å² |  | 143.2 Å² |  | collision cross section in nitrogen [5]: 139.3 Å² |
| CC(C)COC(=O)CCCCC(=O)OCC(C)C [Diisobutyl adipate] |  |  |  | 179.8 Å² |  |
| CCOP(=O)(NC(C)C)Oc1ccc(S(C)(=O)=O)c(C)c1 (stereo not given) [Fenamiphos sulfone] | 180.3 Å² | 176.7 Å² | 182.4 Å² | 181.5 Å² |  |
| CCCCCCCCCCCCN1CCOCC1 [4-Dodecylmorpholine] | 176.3 Å² |  | 176.3 Å² |  |  |
| c1ccc(-c2nnn[nH]2)cc1 [5-Phenyl-1H-tetrazole] |  | 127.7 Å² |  |  |  |
| CC(C)Nc1ccc(NC(C)C)c2c1C(=O)c1ccccc1C2=O [1,4-Bis(N-isopropylamino)anthraquinone] | 179.4 Å² |  | 179.1 Å² |  | collision cross section in nitrogen [5]: 178.2 Å² |
| CCN(CC)CCNC(=O)c1c(C)[nH]c(/C=C2\C(=O)Nc3ccc(F)cc32)c1C [Sunitinib malate] | 207 Å² |  |  | 214.3 Å² |  |
